Earlier results in PMC11185183 (PNAS Nexus, 2024).

Tested on: GC-B

CN(C)CCN1CCCC(C(=O)Nc2nc3c(F)cc(F)cc3s2)C1 (stereo not shown) [MCUF-651]
action on GC-B: lacked any action
